Reference: ChEMBL document CHEMBL1147529, “Discovery and optimization of 2-aryl oxazolo-pyrimidines as adenosine kinase inhibitors using liquid phase parallel synthesis” (Bioorg Med Chem Lett, 2004)

Target: Adenosine kinase (Homo sapiens, UniProt P55263)
Experiment: Inhibitory activity against human adenosine kinase expressed in Escherichia coli

Sequence of Adenosine kinase (P55263 whole entry): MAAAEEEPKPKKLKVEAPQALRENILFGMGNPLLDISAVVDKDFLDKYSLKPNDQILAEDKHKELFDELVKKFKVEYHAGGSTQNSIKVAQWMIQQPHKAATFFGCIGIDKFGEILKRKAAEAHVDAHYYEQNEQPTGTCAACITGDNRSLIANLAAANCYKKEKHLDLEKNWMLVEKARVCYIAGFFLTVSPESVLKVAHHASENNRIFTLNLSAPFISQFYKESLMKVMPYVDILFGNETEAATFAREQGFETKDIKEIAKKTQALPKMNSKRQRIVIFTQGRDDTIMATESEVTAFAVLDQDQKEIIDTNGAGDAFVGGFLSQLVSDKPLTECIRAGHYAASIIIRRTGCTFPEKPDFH

| Compound | IC50 |
| --- | --- |
| O=C(Nc1ccc(-c2nc3c(N4CC5CCN(Cc6ccccc6)C5C4)ncnc3o2)cc1)C1CC1 (configuration not stated) | 30 nM |
| O=C(Nc1cccc(-c2nc3c(N4CC5CCN(Cc6ccccc6)C5C4)ncnc3o2)c1)C1CC1 (configuration not stated) | 60 nM |
| COCC(=O)Nc1cccc(-c2nc3c(N4CC5CCN(Cc6ccccc6)C5C4)ncnc3o2)c1 (configuration not stated) | 40 nM |
| Clc1ccc(-c2nc3c(N4CC5CCN(Cc6ccccc6)C5C4)ncnc3o2)cn1 (configuration not stated) | 70 nM |
| CCCCNc1ncnc2oc(-c3ccccc3)nc12 | > 10000 nM |
| O=C(Nc1cccc(-c2nc3c(N4CC5CCN(Cc6ccccc6)C5C4)ncnc3o2)c1)c1ccc(F)cc1 (configuration not stated) | 200 nM |
| O=C(Nc1cccc(-c2nc3c(N4CC5CCN(Cc6ccccc6)C5C4)ncnc3o2)c1)c1ccc(C(F)(F)F)cc1 (configuration not stated) | > 10000 nM |
| COCCNc1ncnc2oc(-c3ccccc3)nc12 | > 10000 nM |
| Fc1ccc(-c2ccc(-c3nc4c(N5CC6CCN(Cc7ccccc7)C6C5)ncnc4o3)cc2)cc1 (configuration not stated) | > 10000 nM |
| O=C(Cc1ccccc1)Nc1ccc(-c2nc3c(N4CC5CCN(Cc6ccccc6)C5C4)ncnc3o2)cc1 (configuration not stated) | 70 nM |
| CN(C)c1ccc(-c2nc3c(N4CC5CCN(Cc6ccccc6)C5C4)ncnc3o2)cn1 (configuration not stated) | 10 nM |
| O=C(Nc1ccc(-c2nc3c(N4CC5CCN(Cc6ccccc6)C5C4)ncnc3o2)cc1)c1ccc(F)cc1 (configuration not stated) | 130 nM |
| O=C(Nc1ccc(-c2nc3c(N4CC5CCN(Cc6ccccc6)C5C4)ncnc3o2)cc1)c1ccc(C(F)(F)F)cc1 (configuration not stated) | > 10000 nM |
| COCC(=O)Nc1ccc(-c2nc3c(N4CC5CCN(Cc6ccccc6)C5C4)ncnc3o2)cc1 (configuration not stated) | 40 nM |
| O=C(Cc1ccccc1)Nc1cccc(-c2nc3c(N4CC5CCN(Cc6ccccc6)C5C4)ncnc3o2)c1 (configuration not stated) | 210 nM |
| c1ccc(CN2CCC3CN(c4ncnc5oc(-c6ccc(-c7cccs7)cc6)nc45)CC32)cc1 (configuration not stated) | 90 nM |
| CN(CCCNc1ncnc2oc(-c3ccccc3)nc12)c1ccccc1 | 270 nM |
| Nc1ncnc2nc(-c3ccc(N4CCOCC4)nc3)cc(-c3cccc(Br)c3)c12 | 10 nM |

More lines, now with the values ahead:

| IC50 | Compound |
| --- | --- |
| 1000 nM | c1ccc(CN2C[C@@H]3CCCN(c4ncnc5oc(-c6ccccc6)nc45)[C@@H]3C2)cc1 |
| 70 nM | O=C(Nc1ccc(-c2nc3c(N4CC5CCN(Cc6ccccc6)C5C4)ncnc3o2)cc1)c1ccccc1 (configuration not stated) |
| 120 nM | c1ccc(CN2CC[C@@H]3CN(c4ncnc5oc(-c6ccccc6)nc45)C[C@@H]32)cc1 |
| > 10000 nM | c1ccc(CN2CCN(c3ncnc4oc(-c5ccccc5)nc34)CC2)cc1 |
| 200 nM | c1ccc(CN2CCC3CN(c4ncnc5oc(-c6ccccc6)nc45)CC32)cc1 (configuration not stated) |
| 240 nM | Brc1ccc(-c2nc3c(N4CC5CCN(Cc6ccccc6)C5C4)ncnc3o2)cc1 (configuration not stated) |
| 50 nM | Nc1ccc(-c2nc3c(N4CC5CCN(Cc6ccccc6)C5C4)ncnc3o2)cc1 (configuration not stated) |
| 230 nM | c1ccc(CCCNc2ncnc3oc(-c4ccccc4)nc23)cc1 |
| > 1000 nM | Fc1ccc(CN2CCCN(c3ncnc4oc(-c5ccccc5)nc34)CC2)cc1 |
| 260 nM | Brc1cccc(-c2nc3c(N4CC5CCN(Cc6ccccc6)C5C4)ncnc3o2)c1 (configuration not stated) |
| > 1000 nM | c1ccc(CN2CCC3CN(c4ncnc5oc(-c6ccncc6)nc45)CC32)cc1 (configuration not stated) |
| 130 nM | c1ccc(CN2CCC3CN(c4ncnc5oc(-c6cccnc6)nc45)CC32)cc1 (configuration not stated) |
| 90 nM | O=C(Nc1cccc(-c2nc3c(N4CC5CCN(Cc6ccccc6)C5C4)ncnc3o2)c1)c1ccccc1 (configuration not stated) |
| > 10000 nM | c1ccc(CN2CC3CN(c4ncnc5oc(-c6ccccc6)nc45)CC3C2)cc1 (configuration not stated) |
